Results on 3 compounds are retold here after ChEMBL document CHEMBL4118098, “Discovery of DS28120313 as a potent orally active hepcidin production inhibitor: Design and optimization of novel 4,6-disubstituted indazole derivatives” (Bioorg Med Chem Lett, 2017).

The target in assay [1] is Serine/threonine-protein kinase Chk1 (Homo sapiens) (UniProt O14757). The assay is described as follows: Inhibition of CHK1 (unknown origin) at 0.19 uM relative to control.
In assay [2] the target is Tyrosine-protein kinase ABL1 (Homo sapiens) (UniProt P00519). The assay is described as follows: Inhibition of ABL (unknown origin) at 0.19 uM relative to control.
Assay [3] has as its target Mitogen-activated protein kinase 1 (Homo sapiens) (UniProt P28482). Description: Inhibition of Erk2 (unknown origin) at 0.19 uM relative to control.
Assay [4] concerns the target Ribosomal protein S6 kinase alpha-4 (Homo sapiens) (UniProt O75676). Description: Inhibition of MSK2 (unknown origin) at 0.19 uM relative to control.
The target in assay [5] is Serine/threonine-protein kinase DCLK2 (Homo sapiens) (UniProt Q8N568). The assay is described as follows: Inhibition of DCAMKL2 (unknown origin) at 0.19 uM relative to control.
Assay [6] has as its target Calcium/calmodulin-dependent protein kinase type II subunit alpha (Homo sapiens) (UniProt Q9UQM7). Description: Inhibition of CaMK2a (unknown origin) at 0.19 uM relative to control.
Assay [7] deals with Maternal embryonic leucine zipper kinase (Homo sapiens) (UniProt Q14680). Description: Inhibition of MELK (unknown origin) at 0.19 uM relative to control.
Assay [8] deals with Serine/threonine-protein kinase 3 (Homo sapiens) (UniProt Q13188). Description: Inhibition of MST2 (unknown origin) at 0.19 uM relative to control.
Assay [9] has as its target Calcium/calmodulin-dependent protein kinase type II subunit beta (Homo sapiens) (UniProt Q13554). Description: Inhibition of CAMK2 (unknown origin) at 0.19 uM relative to control.
Assay [10] has as its target Ephrin type-A receptor 1 (Homo sapiens) (UniProt P21709). The assay is described as follows: Inhibition of EPHA1 (unknown origin) at 0.19 uM relative to control.
Assay [11] has as its target Phosphorylase b kinase gamma catalytic chain, skeletal muscle/heart isoform (Homo sapiens) (UniProt Q16816). Description: Inhibition of PhKg1 (unknown origin) at 0.19 uM relative to control.
For assay [12], the target named is Tyrosine-protein kinase Blk (Homo sapiens) (UniProt P51451). The assay is described as follows: Inhibition of BLK (unknown origin) at 0.19 uM relative to control.
The target in assay [13] is STE20-like serine/threonine-protein kinase (Homo sapiens) (UniProt Q9H2G2). The assay is described as follows: Inhibition of SLK (unknown origin) at 0.19 uM relative to control.
Assay [14] concerns the target Dual specificity protein kinase CLK3 (Homo sapiens) (UniProt P49761). Description: Inhibition of CLK3 (unknown origin) at 0.19 uM relative to control.
The target in assay [15] is Serine/threonine-protein kinase Chk2 (Homo sapiens) (UniProt O96017). Description: Inhibition of CHK2 (unknown origin) at 0.164 uM relative to control.
In assay [16] the target is Mitogen-activated protein kinase 14 (Homo sapiens) (UniProt Q16539). Description: Inhibition of p38a (unknown origin) at 0.164 uM relative to control.
The target of assay [17] is Protein kinase C epsilon type (Homo sapiens) (UniProt Q02156). The assay is described as follows: Inhibition of PKC-epsilon (unknown origin) at 0.164 uM relative to control.
Assay [18] deals with Insulin-like growth factor 1 receptor (Homo sapiens) (UniProt P08069). The assay is described as follows: Inhibition of IGF1R (unknown origin) at 0.164 uM relative to control.
Assay [19] addresses Aurora kinase B (Homo sapiens) (UniProt Q96GD4). The assay is described as follows: Inhibition of AurB (unknown origin) at 0.164 uM relative to control.
Assay [20] has as its system Tyrosine-protein kinase ABL1 (Homo sapiens), P00519 [Q252H]. The assay is described as follows: Inhibition of Abl Q252H mutant (unknown origin) at 0.164 uM relative to control.
Assay [21] deals with Fibroblast growth factor receptor 4 (Homo sapiens) (UniProt P22455). Description: Inhibition of FGFR4 (unknown origin) at 0.164 uM relative to control.
For assay [22], the target named is Dual specificity tyrosine-phosphorylation-regulated kinase 1B (Homo sapiens) (UniProt Q9Y463). Description: Inhibition of DYRK1B (unknown origin) at 0.164 uM relative to control.
Assay [23] addresses Glycogen synthase kinase-3 alpha (Homo sapiens) (UniProt P49840). Description: Inhibition of GSK3-alpha (unknown origin) at 0.164 uM relative to control.
For assay [24], the target named is Serine/threonine-protein kinase PAK 3 (Homo sapiens) (UniProt O75914). Description: Inhibition of PAK3 (unknown origin) at 0.164 uM relative to control.
The target of assay [25] is Cyclin-dependent kinase 3 (Homo sapiens) (UniProt Q00526). Description: Inhibition of CDK3 (unknown origin) at 0.164 uM relative to control.
The target of assay [26] is Serine/threonine-protein kinase Nek6 (Homo sapiens) (UniProt Q9HC98). The assay is described as follows: Inhibition of NEK6 (unknown origin) at 0.164 uM relative to control.
The target in assay [27] is T1, Testis-specific serine/threonine-protein kinase 1 (Homo sapiens) (UniProt Q9BXA7).
T1 sequence (whole entry): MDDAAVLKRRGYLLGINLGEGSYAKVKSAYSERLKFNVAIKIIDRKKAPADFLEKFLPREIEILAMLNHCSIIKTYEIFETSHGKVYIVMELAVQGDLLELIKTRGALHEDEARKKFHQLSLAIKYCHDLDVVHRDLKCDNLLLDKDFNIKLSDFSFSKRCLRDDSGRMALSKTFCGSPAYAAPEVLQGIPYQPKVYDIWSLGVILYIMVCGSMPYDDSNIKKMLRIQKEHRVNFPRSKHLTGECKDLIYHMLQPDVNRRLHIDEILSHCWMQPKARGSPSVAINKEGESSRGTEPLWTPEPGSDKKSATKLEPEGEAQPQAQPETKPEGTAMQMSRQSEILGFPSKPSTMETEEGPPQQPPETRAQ
Description: Inhibition of TSSK1 (unknown origin) at 0.164 uM relative to control.

Assay [28] addresses Dual specificity tyrosine-phosphorylation-regulated kinase 4 (Homo sapiens) (UniProt Q9NR20). The assay is described as follows: Inhibition of DYRK4 (unknown origin) at 0.164 uM relative to control.
In assay [29] the target is Homeodomain-interacting protein kinase 3 (Homo sapiens) (UniProt Q9H422). Description: Inhibition of HIPK3 (unknown origin) at 0.164 uM relative to control.
Assay [30] has as its target Interleukin-1 receptor-associated kinase 1 (Homo sapiens) (UniProt P51617). Description: Inhibition of IRAK1 (unknown origin) at 0.164 uM relative to control.
Assay [31] deals with Mitogen-activated protein kinase 1 (Homo sapiens) (UniProt P28482). Description: Inhibition of Erk2 (unknown origin) at 0.45 uM relative to control.
Another assay is filed under the species Homo sapiens. The assay is described as follows: Inhibition of PKA (unknown origin) at 0.45 uM relative to control.
For assay [32], the target named is Glycogen synthase kinase-3 alpha (Homo sapiens) (UniProt P49840). Description: Inhibition of GSK3-alpha (unknown origin) at 0.45 uM relative to control.
In assay [33] the target is Calcium/calmodulin-dependent protein kinase type 1 (Homo sapiens) (UniProt Q14012). The assay is described as follows: Inhibition of CaMK1a (unknown origin) at 0.45 uM relative to control.
Assay [34] deals with MAP kinase-interacting serine/threonine-protein kinase 2 (Homo sapiens) (UniProt Q9HBH9). Description: Inhibition of MNK2 (unknown origin) at 0.45 uM relative to control.

Each structure is given as a SMILES string.

Mitogen-activated protein kinase 1 (Homo sapiens), sequence (P28482 whole entry): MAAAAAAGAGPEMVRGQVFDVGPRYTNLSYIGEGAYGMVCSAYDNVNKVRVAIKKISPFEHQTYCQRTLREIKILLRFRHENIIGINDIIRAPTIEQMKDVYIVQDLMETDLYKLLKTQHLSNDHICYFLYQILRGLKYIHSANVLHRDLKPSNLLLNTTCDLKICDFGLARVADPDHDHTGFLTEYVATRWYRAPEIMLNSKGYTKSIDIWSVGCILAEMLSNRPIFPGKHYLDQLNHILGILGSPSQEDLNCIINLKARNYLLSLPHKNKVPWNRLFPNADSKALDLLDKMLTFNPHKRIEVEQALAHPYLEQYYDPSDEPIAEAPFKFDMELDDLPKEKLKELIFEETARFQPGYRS
Glycogen synthase kinase-3 alpha (Homo sapiens), sequence (P49840 2-483 limits assumed): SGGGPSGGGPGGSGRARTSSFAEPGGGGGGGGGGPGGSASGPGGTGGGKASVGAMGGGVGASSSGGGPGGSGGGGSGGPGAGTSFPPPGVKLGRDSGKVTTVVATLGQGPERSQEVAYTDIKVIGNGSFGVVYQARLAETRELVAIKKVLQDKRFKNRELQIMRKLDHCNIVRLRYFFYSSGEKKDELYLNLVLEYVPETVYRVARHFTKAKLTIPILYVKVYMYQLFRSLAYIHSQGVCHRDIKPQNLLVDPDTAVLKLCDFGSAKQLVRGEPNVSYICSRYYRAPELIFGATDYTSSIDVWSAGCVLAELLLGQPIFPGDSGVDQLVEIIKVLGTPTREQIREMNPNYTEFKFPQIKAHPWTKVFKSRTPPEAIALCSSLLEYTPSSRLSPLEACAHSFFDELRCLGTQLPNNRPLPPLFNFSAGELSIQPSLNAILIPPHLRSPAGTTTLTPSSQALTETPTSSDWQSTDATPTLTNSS
Mitogen-activated protein kinase 14 (Homo sapiens), sequence (Q16539 whole entry): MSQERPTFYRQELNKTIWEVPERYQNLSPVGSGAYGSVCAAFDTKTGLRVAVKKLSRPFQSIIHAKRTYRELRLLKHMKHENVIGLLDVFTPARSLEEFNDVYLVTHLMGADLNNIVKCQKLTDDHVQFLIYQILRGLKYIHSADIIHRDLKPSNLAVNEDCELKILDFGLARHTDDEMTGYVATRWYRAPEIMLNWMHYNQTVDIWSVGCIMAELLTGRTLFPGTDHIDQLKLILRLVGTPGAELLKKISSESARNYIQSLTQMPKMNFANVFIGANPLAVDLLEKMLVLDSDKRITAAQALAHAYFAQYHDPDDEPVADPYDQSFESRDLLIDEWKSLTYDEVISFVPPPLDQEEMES
Homeodomain-interacting protein kinase 3 (Homo sapiens), sequence (Q9H422 whole entry, looked up): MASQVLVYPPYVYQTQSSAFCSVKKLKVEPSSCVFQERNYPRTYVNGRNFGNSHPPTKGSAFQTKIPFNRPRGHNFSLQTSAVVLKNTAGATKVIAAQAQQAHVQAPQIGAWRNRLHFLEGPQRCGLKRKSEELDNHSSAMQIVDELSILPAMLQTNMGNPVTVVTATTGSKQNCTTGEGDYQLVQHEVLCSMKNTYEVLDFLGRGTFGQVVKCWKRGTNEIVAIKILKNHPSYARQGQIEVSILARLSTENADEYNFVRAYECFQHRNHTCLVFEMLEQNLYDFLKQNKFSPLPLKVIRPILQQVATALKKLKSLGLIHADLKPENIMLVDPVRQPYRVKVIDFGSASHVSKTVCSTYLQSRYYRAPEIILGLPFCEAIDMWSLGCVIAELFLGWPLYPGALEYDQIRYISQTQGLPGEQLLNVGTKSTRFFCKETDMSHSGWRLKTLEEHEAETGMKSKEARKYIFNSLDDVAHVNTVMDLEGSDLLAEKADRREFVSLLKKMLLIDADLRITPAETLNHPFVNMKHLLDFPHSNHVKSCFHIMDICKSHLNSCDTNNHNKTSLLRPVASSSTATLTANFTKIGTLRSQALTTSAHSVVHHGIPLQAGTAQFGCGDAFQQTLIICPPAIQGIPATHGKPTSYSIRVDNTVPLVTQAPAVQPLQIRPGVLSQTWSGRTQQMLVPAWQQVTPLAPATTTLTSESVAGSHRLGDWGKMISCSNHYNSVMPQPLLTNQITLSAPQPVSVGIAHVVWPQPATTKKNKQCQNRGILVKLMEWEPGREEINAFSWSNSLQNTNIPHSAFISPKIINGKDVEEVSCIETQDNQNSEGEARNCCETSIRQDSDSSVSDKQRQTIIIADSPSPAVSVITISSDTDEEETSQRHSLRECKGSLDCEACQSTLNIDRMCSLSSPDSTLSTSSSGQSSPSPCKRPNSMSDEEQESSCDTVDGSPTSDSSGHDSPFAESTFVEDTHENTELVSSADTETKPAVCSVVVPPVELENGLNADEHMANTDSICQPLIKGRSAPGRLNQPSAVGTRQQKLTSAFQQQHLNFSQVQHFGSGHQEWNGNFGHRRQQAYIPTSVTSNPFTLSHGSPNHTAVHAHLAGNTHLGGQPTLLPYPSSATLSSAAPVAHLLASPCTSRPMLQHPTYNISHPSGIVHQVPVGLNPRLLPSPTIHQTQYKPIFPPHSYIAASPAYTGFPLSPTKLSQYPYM
Serine/threonine-protein kinase Chk1 (Homo sapiens), sequence (O14757 whole entry): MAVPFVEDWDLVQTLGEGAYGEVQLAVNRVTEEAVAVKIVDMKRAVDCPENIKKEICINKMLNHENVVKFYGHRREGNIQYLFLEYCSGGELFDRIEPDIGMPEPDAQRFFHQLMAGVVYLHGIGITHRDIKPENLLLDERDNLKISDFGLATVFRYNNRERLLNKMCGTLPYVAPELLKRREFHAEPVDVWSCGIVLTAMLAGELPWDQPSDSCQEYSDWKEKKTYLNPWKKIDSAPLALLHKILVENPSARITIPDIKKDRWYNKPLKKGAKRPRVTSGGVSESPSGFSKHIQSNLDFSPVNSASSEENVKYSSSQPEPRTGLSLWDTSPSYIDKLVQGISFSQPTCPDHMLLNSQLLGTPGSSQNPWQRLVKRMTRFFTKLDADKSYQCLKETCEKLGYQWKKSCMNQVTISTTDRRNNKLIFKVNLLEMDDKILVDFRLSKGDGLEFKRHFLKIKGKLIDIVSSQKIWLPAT
Serine/threonine-protein kinase Nek6 (Homo sapiens), sequence (Q9HC98 whole entry): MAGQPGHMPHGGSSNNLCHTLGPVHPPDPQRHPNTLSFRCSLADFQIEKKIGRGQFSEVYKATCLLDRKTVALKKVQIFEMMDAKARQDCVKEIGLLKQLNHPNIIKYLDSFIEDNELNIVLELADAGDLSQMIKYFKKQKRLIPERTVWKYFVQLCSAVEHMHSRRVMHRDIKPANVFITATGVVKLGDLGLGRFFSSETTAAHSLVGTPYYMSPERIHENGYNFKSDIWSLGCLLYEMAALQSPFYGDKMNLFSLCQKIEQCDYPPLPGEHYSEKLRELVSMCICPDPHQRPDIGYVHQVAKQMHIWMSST
Dual specificity tyrosine-phosphorylation-regulated kinase 1B (Homo sapiens), sequence (Q9Y463 whole entry, looked up): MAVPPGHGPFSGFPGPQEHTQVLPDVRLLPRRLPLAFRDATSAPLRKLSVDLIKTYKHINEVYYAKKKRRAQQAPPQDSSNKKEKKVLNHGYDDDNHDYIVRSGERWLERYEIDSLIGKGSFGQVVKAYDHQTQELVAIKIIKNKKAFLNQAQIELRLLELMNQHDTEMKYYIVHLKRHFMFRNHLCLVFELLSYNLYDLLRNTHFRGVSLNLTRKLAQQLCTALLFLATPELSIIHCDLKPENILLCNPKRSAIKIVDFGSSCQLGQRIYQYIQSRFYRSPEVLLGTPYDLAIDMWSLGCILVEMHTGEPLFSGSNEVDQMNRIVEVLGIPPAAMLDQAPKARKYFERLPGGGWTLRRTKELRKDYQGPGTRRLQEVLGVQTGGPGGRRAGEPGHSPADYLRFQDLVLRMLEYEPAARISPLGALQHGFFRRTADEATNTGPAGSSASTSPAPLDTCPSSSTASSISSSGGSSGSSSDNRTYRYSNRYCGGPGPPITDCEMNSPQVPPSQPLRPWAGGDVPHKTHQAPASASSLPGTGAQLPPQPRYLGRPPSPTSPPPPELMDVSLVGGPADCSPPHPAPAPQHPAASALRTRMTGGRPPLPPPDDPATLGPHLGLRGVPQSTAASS
Fibroblast growth factor receptor 4 (Homo sapiens), sequence (P22455 22-802 limits assumed): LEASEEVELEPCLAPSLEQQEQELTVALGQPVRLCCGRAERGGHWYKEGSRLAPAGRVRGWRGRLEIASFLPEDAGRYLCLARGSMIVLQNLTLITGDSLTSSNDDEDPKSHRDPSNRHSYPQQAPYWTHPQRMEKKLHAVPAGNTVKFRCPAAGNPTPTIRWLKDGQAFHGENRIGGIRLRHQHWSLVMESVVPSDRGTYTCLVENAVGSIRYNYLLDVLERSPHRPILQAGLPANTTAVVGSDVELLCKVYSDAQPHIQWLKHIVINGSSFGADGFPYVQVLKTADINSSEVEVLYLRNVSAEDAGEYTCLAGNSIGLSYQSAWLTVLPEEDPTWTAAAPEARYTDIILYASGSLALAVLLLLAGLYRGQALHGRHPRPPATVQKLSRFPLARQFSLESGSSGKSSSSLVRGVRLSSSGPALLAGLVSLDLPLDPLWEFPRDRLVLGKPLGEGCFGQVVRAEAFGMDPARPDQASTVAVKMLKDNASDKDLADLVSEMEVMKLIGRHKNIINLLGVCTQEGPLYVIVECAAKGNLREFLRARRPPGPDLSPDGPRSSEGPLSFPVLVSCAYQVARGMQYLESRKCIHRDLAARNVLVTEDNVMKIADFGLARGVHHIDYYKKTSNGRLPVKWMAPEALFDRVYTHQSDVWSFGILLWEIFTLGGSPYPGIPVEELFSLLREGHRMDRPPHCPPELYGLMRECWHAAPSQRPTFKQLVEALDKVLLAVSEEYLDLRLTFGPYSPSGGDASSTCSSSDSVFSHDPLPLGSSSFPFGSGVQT
Calcium/calmodulin-dependent protein kinase type 1 (Homo sapiens), sequence (Q14012 whole entry, looked up): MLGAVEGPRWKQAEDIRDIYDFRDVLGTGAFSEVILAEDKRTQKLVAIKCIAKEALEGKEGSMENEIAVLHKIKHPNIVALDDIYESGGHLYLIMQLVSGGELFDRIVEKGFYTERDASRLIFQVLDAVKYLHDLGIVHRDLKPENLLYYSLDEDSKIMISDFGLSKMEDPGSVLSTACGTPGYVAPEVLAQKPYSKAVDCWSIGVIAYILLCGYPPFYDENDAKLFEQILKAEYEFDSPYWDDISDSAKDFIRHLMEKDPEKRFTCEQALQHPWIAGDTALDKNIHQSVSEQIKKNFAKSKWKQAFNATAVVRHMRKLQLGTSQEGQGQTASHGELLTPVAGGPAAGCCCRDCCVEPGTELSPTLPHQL

Consider `Cc1[nH]nc(C2CC2)c1-c1ccc2c(-c3ccc(N4CCN(C)CC4)nc3)n[nH]c2c1`, for which the inhibition (as a rule, the drop in the measured response relative to a control, in per cent) was -8.7% in [1]; 83.7% in assay [2]; 4.7% in [3]; -3.3% in [4]; -1.7% in [5]; -2.3% in assay [6]. Besides, the inhibition came to 51% in assay [7]; 4.7% in assay [8]; 1% in [9]; 6.3% in [10]; 2% in [11]; 3.7% in [12]. Also, the inhibition is 29.7% in [13] and -1.3% in assay [14].
Take `COC(=O)Nc1cc(-c2c(C3CC3)n[nH]c2C)cc2[nH]ncc12`: the inhibition is 9.7% in [15]; 5.7% in [16]; -4% in assay [17]; 5.7% in assay [18]; 1% in assay [19]; 0.3% in assay [20]. Also, the inhibition in assay [21] is 1.3%; in assay [22] it was 0.3%; in assay [23], 1%; in assay [24], -2%; in assay [25] it was -8.3%; in assay [26], 4.3%. For the same compound, the inhibition was -4.3% in assay [27], 2.7% in [28], 1% in [29] and 3% in assay [30].
As to `Cc1n[nH]c(C)c1-c1ccc2c(NC(=O)c3ccc(N4CCN(C)CC4)cc3)n[nH]c2c1`, the inhibition in [31] is -0.3%; in the assay filed under Homo sapiens, 3%; in [32] it was -1%; in [33] it was -0.7%; in assay [34] it was -1%.
